{
  "source": "patent US20070122350A1",
  "about": "“Safe and effective methods of administering therapeutic agents” (Transave, Inc., priority 2005, published 2007)",
  "origin": "cited, not measured here",
  "settings": "OSHA",
  "data": [
    {"smiles": "N.N.[Cl][Pt][Cl]", "note": "[cisplatin, Cis-diamminedichloroplatinum(II)]", "values": [
      {"measurement": "legal airborne permissible exposure limit (PEL)", "setting": "averaged over an eight-hour work shift", "value": "2·10^−3 mg/m^3"},
      {"measurement": "legal airborne permissible exposure limit (PEL), equivalent", "setting": "per liter of air during 480 consecutive minutes", "value": 2, "unit": "ng/L"}
    ]}
  ]
}
